Measurements: patent US20040014217A1, “Methods of transfection” (priority 2000, published 2004)

System: 1HAEo-cells
Test: Luminometric luciferase assay, EGTA effects, 1HAEo- cells
Type: cell-based, human
Settings: 2 mM EGTA prior to transfection, 2 washes
Method: The confluent (A) and subconfluent (B) 1HAEo-cells were transfected with LID complexes after pre-treatment with EGTA (EGTA) or in the presence of EGTA (LID+EGTA).
To enhance the efficiency of transfection in confluent epithelial cells, several agents were tested including EGTA (Sigma, Poole, UK), trypsin/EDTA (Sigma, Poole, UK), water, and mouse anti human E-cadherin antibody (Serotec Ltd, Oxford, UK). It was carried out firstly by comparing the effects of pretreatment of the cells with EGTA, water and Trypsin/EDTA with EGTA formulated into LID vector without pretreatment. […]
Twenty-four hours after transfection with pCI-luciferase, is cells were washed with PBS, lysed by adding 100 μl of Reporter Lysis Buffer (Promega, Southampton, UK) and detached from the plate by manual scraping using micropipette tips. […] The activity of luciferase was assayed with a luciferase assay kit (Promega, Southampton, UK) on a Lucy-1 plate-reading luminometer (Anthos, Salzburg, Austria). The protein concentration of each sample was determined with Protein Assay Reagent (BioRad Laboratories, Hertfordshire, UK) by measuring absorbance at 595 nm and the specific activity of luciferase was expressed as relative light unit per milligram protein (RLU/mg protein).

SMILES: O=C(O)CN(CCOCCOCCN(CC(=O)O)CC(=O)O)CC(=O)O [EGTA, ethylene glycol-bis(β-aminoethyl ether)-N,N,N′,N′-tetraacetic acid]
- enhancement of transfection, EGTA pre-treatment protocol, confluent cells: no enhancement
